Laboratory results published in patent US4965264A, “Thienocinnoline compounds and their pharmaceutical use” (Yoshitomi Pharmaceutical Industries, Ltd., priority 1987, dated 1990).

Experiments:
leukocytes = experiment: Action on leukocyte-phagocytosis; type: cell-based, mouse (ICR); settings: Mus musculus, 20 min, 37° C., read-out: potentiating action on leukocyte phagocytosis, ratio of phagocytic leukocytes relative to controls
Method: The experiment was performed in accordance with the method by Stossel et al. [Journal of Clinical Investigation, vol. 51, 615 (1972)].
(§1) ICR mice weighing 30-35 g were intraperitoneally administered with glycogen. Three hours later, the leukocytes in the abdominal cavity were collected. A leukocyte suspension of 5×10^6 cells/ml was prepared and the test compound was added to 200 μl of the cell suspension, followed by further addition of 100 μl of mouse serum and 100 μl of dead yeast (1×10^8 particles/ml) thereto. The mixture was incubated at 37° C. for 20 minutes. By observing more than 200 leukocytes in the reaction mixture under a microscope (400 magnifications), the number of the leukocytes which had phagocytosed at least one dead yeast was counted. The ratio of the number of phagocytic leukocytes treated with 0.1 μM of the test compounds relative to that of phagocytic leukocytes of controls was estimated. The potentiating actions on phagocytosis of the compounds of Examples 1 and 9 were 160% and 158% respectively.

peritoneal macrophages = experiment: Action on macrophage-phagocytosis; type: cell-based; settings: Rattus norvegicus, read-out: potentiating action on macrophage phagocytosis, relative ratio of phagocytic macrophages
Method: as §1
Casein sodium was intraperitoneally administered to rats. Three to four days later, peritoneal macrophages were collected. The phagocytosis was examined, and the relative ratio of phagocytic macrophages of the rat treated with 0.1 μM of the test compound was calculated in the same manner as Experimental Example 4. The potentiating actions on phagocytosis of the compounds of Examples 2, 8 and 10 were 146%, 167% and 148% respectively.

E. coli 0-111 strain = experiment: Infection-protective action (E. coli infection in cyclophosphamide-treated mice); type: in vivo, mouse (male ICR); settings: 3 mg/kg orally for 3 days; 7 days after E. coli inoculation; cyclophosphamide 200 mg/kg i.p.
Method: Cyclophosphamide was intraperitoneally administered to male ICR mice (weighing 23-27 g, aged 5 weeks) at the dosage of 200 mg/kg. Four days later, […] of E. coli 0-111 strain was subcutaneously inoculated into the mice (Controls). The test compounds (3 mg/kg) were orally administered to the mice for 3 days from the following day of the administration of cyclophosphamide. The survival rate of the treated mice relative to controls 7 days after the inoculation of E. coli was compared.

benzodiazepine receptors = experiment: Displacement of tritiated diazepam, benzodiazepine receptor binding (synaptosome fraction of cerebral cortex); design: species or system rat (male Wistar); settings: displacement of 2 nM tritiated diazepam, rat cortex synaptosomes, pH 7.4, 0°C, 20 min; read-out: Affinity to BZP Receptors, Ki
Method: The experiment for specific affinity to benzodiazepine receptors was carried out in accordance with the method described in Life Science, vol. 20, 2101 (1977).
The crude cyhaptosome fraction was isolated from the cerebral cortex of male Wistar rats aged 9-10 weeks, and was suspended in 50 mM Tris-hydrochloric acid buffer solution (pH 7.4) containing 120 mM sodium chloride and 5 mM potassium chloride. These suspensions were used for the experiment.
The test compounds in several different concentrations and tritiated diazepam (in final concentration of 2 nM) were added to the synaptosome suspensions, and the mixtures were incubated at 0° C. for 20 minutes. These suspensions were filtered with Whatman GF/B glassfiber filters. After the filters were washed with the above-mentioned buffer solution, the radioactivity left on the filters was measured with the use of a liquid scintillation counter.
Specific binding was determined by subtracting binding in the presence of 10^-6 M unlabeled diazepam from total binding.
According to the foregoing experimental method, the binding force to benzodiazepine receptors of the compound of the present invention is evaluated from its displacement ability for tritiated diazepam at its binding site, which is represented by Ki value (nM).

[1] = tested on: amnesia induced by electroconvulsive shock; experiment: Action on experimental amnesia (electroconvulsive shock, step-through passive avoidance); type: in vivo, mouse (male ddY); settings: Mus musculus, ip; i.p. immediately after ECS; latency 3 h after acquisition trial; read-out: Anti-amnesia Action, MED
Method: The experiment was carried out in accordance with the method described by Sara in Psychopharmacologia, vol. 36, 59 (1974). Male ddY mice weighing 23-26 g, 20 animals per group, were used, and a step-through passive avoidance reflex practicing box consisting of illuminated chamber and dark chamber was used as the experimental apparatus. As the acquisition trial of passive avoidance reflex, the animals were placed in the illuminated chamber and then allowed to enter the dark one. As soon as the animals entered the dark chamber, footshock was applied to the mouse. Experimental amnesia was caused by applying electroconvulsive shock [ECS]soon after the acquisition trial. As the experimental trial, the animals were placed in the illuminated chamber three hours after the acquisition trial, and the time which the animals took to enter the dark chamber (latency) was measured until 600 seconds. The test compounds were administered intraperitoneally (i.p.) immediately after the application of ECS. For the evaluation of the effects, antagonistic actions against the reduction in latency, caused by the application of ESC were examined.

| Compound | Ki (benzodiazepine receptors) | activity at 0.1 µM (leukocytes) | activity at 0.1 µM (peritoneal macrophages) | effect on survival rate relative to controls (E. coli 0-111 strain) | minimal effective dose [1] |
| --- | --- | --- | --- | --- | --- |
| O=C1CC2CCc3sccc3C2=NN1c1ccccc1 (stereo not drawn) [Example 1, 8-phenyl-4,5,5a,6,7,8-hexahydrothieno[2,3h]cinnolin-7-one] | – | 160% | – | – | – |
| O=C1CC2CCc3sccc3C2=NN1c1ccc(Cl)cc1 (stereo not drawn) [Example 2, 8-(4-chlorophenyl)4,5,5a,6,7,8-hexahydrothieno[2,3-h]cinnolin-7-one] | – | – | 146% | significant increasing effects on survival rate | – |
| O=C1CC2CCc3sc(Br)cc3C2=NN1c1ccccc1 (stereo not drawn) [Example 4, 2-bromo-8-phenyl-4,5,5a,6,7,8-hexahydrothieno[2,3-h]-cinnolin-7-one] | 30 nM | – | – | – | 0.5 mg/kg |
| O=C1CC2CCc3sc(Br)cc3C2=NN1c1ccccn1 (stereo not drawn) [Example 7, 2-bromo-8-(2-pyridyl)-4,5,5a,6,7,8-hexahydrothieno[2,3-h]cinnolin-7-one] | 60 nM | – | – | – | < 0.5 mg/kg |
| Cc1ccc(N2N=C3c4ccsc4CCC3CC2=O)cc1 (stereo not drawn) [Example 8, 8-(4-methylphenyl)-4,5,5a,6,7,8-hexahydrothieno[2,3-h]cinnolin-7-one] | – | – | 167% | significant increasing effects on survival rate | – |
| COc1ccc(N2N=C3c4cc(Br)sc4CCC3CC2=O)cc1 (stereo not drawn) [Example 11, 2-bromo-8-(4-methoxyphenyl)-4,5,5a,6,7,8-hehahydrothieno[2,3-h]cinnolin-7-one] | 4.5 nM | – | – | significant increasing effects on survival rate | – |

Further lines, with some results ahead:

| Ki (benzodiazepine receptors) | Compound | activity at 0.1 µM (leukocytes) | activity at 0.1 µM (peritoneal macrophages) | effect on survival rate relative to controls (E. coli 0-111 strain) | minimal effective dose [1] |
| --- | --- | --- | --- | --- | --- |
| 280 nM | O=C1CC2CCc3sccc3C2=NN1c1ccccn1 (stereo not drawn) [Example 3, 8-(2-pyridyl)4,5,5a,6,7,8-hexahydrothieno[2,3-h]cinnolin-7-one] | – | – | – | 0.1 mg/kg |
| 18 nM | Cc1cc2c(s1)CCC1CC(=O)N(c3ccccc3)N=C21 (stereo not drawn) [Example 5, 2-methyl-8-phenyl-4,5,5a,6,7,8-hexahydrothieno[2,3-h]cinnolin-7-one] | – | – | – | 0.25 mg/kg |
| 12 nM | O=C1CC2CCc3sc(Br)cc3C2=NN1c1ccc(Cl)cc1 (stereo not drawn) [Example 6, 2-bromo-8-(4-chlorophenyl)-4,5,5a,6,7,8-hexahydrothieno[2,3-h]cinnolin-7-one] | – | – | – | – |
| 12 nM | COc1ccc(N2N=C3c4ccsc4CCC3CC2=O)cc1 (stereo not drawn) [Example 9, 8-(4-methoxyphenyl)4,5,5a,6,7,8-hexahydrothieno[2,3-h]cinnolin-7-one] | 158% | – | – | 0.5 mg/kg |
| 7 nM | Cc1ccc(N2N=C3c4cc(Br)sc4CCC3CC2=O)cc1 (stereo not drawn) [Example 10, 2-bromo-8-(4-methylphenyl)-4,5,5a,6,7,8-hexahydrothieno[2,3-h]cinnolin-7-one] | – | 148% | – | – |
| 5.1 nM | COc1ccc(N2N=C3c4cc(C)sc4CCC3CC2=O)cc1 (stereo not drawn) [Example 14, 2-Methyl-8-(4-methoxyphenyl)-4,5,5a,6,7,8-hexahydrothieno[2,3-h]cinnolin-7-one] | – | – | – | 0.25 mg/kg |
| 10 nM | Cc1ccc(N2N=C3c4cc(C)sc4CCC3CC2=O)cc1 (stereo not drawn) [Example 24, 2-Methyl-8-(4-methylphenyl)-4,5,5a,6,7,8-hexahydrothieno[2,3-h]cinnolin-7-one] | – | – | – | – |
